Data taken from patent US11800874B2, “Composition comprising a selective herbicide and an algal extract, use of an algal extract for detoxifying plants subjected to treatment with a selective herbicide” (LABORATOIRES GOËMAR, priority 2014, dated 2023).
Read-outs that look alike come from different tables or passages of the source.

Tests used:
Conventional soybean [1] = conditions: in vivo
Description: (§1) Conventional soybean (that is to say not genetically modified and therefore not resistant to glyphosate) was planted in a greenhouse and left to grow until the 5-leaf stage.
(§2) A control batch was also cultivated, onto which water was sprayed.

Conventional soybean [2] = conditions: in vivo; remark: listed apart in the source
Description: as §1, §2

[3] = tested on: Glyphosate-resistant soybean; assay: Phytotoxicity of spray treatments on glyphosate-resistant soybean (Example 1); conditions: 4 weeks after treatment
Description: Glyphosate-resistant soybean was planted in a greenhouse and left to grow until the 5-leaf stage. It was separated into different batches, which were each treated by spraying with the following different compositions:
as §2

Manganese-EDTA complex [Mn]
0%: Necrosed surface area (Conventional soybean [1]) | Plants having a necrosed leaf (Conventional soybean [1]) | Necrosed surface area (Conventional soybean [2]) | Plants having a necrosed leaf (Conventional soybean [2]) | Necrosed surface area ([3]; sprayed composition 0.25% w/v) | Plants having a necrosed leaf ([3]; sprayed composition 0.25% w/v) | Necrosed surface area ([3]; sprayed composition 0.5% w/v) | Plants having a necrosed leaf ([3]; sprayed composition 0.5% w/v)
